Measurements from patent publication US7786141B2 (Vertex Pharmaceuticals Incorporated, priority 2004, dated 2010).
Where two headings read alike, the source gives them in different places.

What was measured:
M1 muscarinic receptor = molecular target: T1, M1 muscarinic receptor (Homo sapiens, UniProt P11229); assay: Functional mobilization of intracellular calcium (FLIPR) in M1-CHO cells; type: cell-based
T1 construct: expressed in transfected cells; host or cells: CHO (M1-CHO)
T1 sequence (P11229 1-460): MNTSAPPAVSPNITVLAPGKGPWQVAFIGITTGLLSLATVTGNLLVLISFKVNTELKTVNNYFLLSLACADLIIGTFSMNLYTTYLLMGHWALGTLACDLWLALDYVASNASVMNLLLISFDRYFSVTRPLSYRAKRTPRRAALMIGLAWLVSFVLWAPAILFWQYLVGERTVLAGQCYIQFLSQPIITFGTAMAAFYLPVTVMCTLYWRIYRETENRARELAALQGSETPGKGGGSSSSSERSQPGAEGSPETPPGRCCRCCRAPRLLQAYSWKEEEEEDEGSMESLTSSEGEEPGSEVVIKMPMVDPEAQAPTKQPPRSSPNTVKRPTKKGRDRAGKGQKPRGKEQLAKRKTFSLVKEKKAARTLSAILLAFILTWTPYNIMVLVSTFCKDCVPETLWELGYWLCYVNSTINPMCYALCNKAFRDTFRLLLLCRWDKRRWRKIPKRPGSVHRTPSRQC
How it was run: (§1)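 Intracellular calcium rise is measured by FLIPR fluorescence over 60 sec in CHO cells carrying human M1 or M4 receptors. Compounds are tested alone as agonists, or pre-incubated 15 min (or co-applied) ahead of carbachol at its EC80 to detect inhibition.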

M4 muscarinic receptor = molecular target: T2, M4 muscarinic receptor (Homo sapiens, UniProt P08173); assay: Functional mobilization of intracellular calcium (FLIPR) in M4-CHO cells; type: cell-based
T2 construct: expressed in transfected cells; host or cells: CHO (M4-CHO)
T2 sequence (P08173 1-479): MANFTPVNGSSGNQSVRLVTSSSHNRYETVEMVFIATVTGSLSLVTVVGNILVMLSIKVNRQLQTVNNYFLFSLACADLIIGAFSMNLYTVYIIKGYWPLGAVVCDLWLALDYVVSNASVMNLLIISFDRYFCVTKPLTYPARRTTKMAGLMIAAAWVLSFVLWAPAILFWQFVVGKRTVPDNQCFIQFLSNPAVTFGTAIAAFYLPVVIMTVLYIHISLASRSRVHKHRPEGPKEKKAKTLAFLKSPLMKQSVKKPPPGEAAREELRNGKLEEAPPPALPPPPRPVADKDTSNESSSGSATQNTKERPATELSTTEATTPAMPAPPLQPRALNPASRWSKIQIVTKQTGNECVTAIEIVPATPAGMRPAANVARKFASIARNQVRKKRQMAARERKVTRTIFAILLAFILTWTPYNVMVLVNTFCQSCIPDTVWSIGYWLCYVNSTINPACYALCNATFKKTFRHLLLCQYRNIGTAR
How it was run: as §1

[1] = Table 4, 100% efficacy is the maximum response obtained with the Carbachol control
[2] = Table 4, modulating M1 receptor
[3] = Table 4, modulating M4 receptor
[4] = M1 receptor, calcium mobilization
[5] = M1 receptor, calcium mobilization, read-out: M1 Efficacy
[6] = M4 receptor, calcium mobilization
[7] = M4 receptor, calcium mobilization, read-out: M4 Efficacy
[8] = Table 4, M1 receptor, calcium mobilization (FLIPR)
[9] = Table 4, M4 receptor, calcium mobilization (FLIPR)
[10] = 100% efficacy is the maximum response obtained with the Carbachol control, Table 5
[11] = CHO cells expressing M1, calcium mobilization, Table 5
[12] = CHO cells expressing M4, calcium mobilization, Table 5
[13] = M1-CHO cells, calcium mobilization (FLIPR)
[14] = M1-CHO cells, calcium mobilization (FLIPR), read-out: M1 Efficacy
[15] = M4-CHO cells, calcium mobilization (FLIPR)
[16] = M4-CHO cells, calcium mobilization (FLIPR), read-out: M4 Efficacy

| SMILES | Emax (M1 muscarinic receptor; [1]) [%] | M1 Activity (M1 muscarinic receptor; [2]) | Emax (M4 muscarinic receptor; [1]) [%] | M4 Activity (M4 muscarinic receptor; [3]) | M1 Activity (M1 muscarinic receptor; [4]) | Emax (M1 muscarinic receptor; [5]) [%] | M4 Activity (M4 muscarinic receptor; [6]) | Emax (M4 muscarinic receptor; [7]) [%] | further results |
| --- | --- | --- | --- | --- | --- | --- | --- | --- | --- |
| COc1cc2c(cc1OC)C1(CCN(C3CCCCC3)CC1)C[C@@H]2NC(C)=O [compound 521] | < 25 | x (activity was measured to be greater than 5.0 μM) | < 25 | x (activity was measured to be greater than 5.0 μM) | – | – | – | – | – |
| COC(=O)N1CC2(CCN(C3CC4CCC(C3)N4C(=O)OCC(C)C)CC2)c2cc(F)ccc21 (centres unmarked) [compound 287] | – | – | – | – | xx (activity was measured to be between 0.1 μM and 1.0 μM) | < 65 | x (activity was measured to be greater than 1.0 μM) | < 65 | – |
| COc1cccc(N2CCC(N3CCC4(CC3)CN(C(=O)N(C)C)c3ccc(F)cc34)CC2)c1 [compound 735] | 25 to 100 | xx (activity was measured to be between 2.0 μM and 5.0 μM) | 25 to 100 | xxx (activity was measured to be less than 2.0 μM) | – | – | – | – | – |
| CCOC(=O)N1CCC(N2CCC3(CC2)CN(C(C)=O)c2cccc(OC)c23)CC1 [compound 560] | 25 to 100 | xxx (activity was measured to be less than 2.0 μM) | < 25 | x (activity was measured to be greater than 5.0 μM) | – | – | – | – | – |
| CN(C)C(=O)N1CC2(CCN(C3CCN(C(=O)c4ccoc4)CC3)CC2)c2cc(F)ccc21 [compound 900] | < 25 | – | < 25 | – | – | – | – | – | M1 Activity (M1 muscarinic receptor; [8]): xx (activity was measured to be between 2.0 μM and 5.0 μM); M4 Activity (M4 muscarinic receptor; [9]): x (activity was measured to be greater than 5.0 μM) |
| CN(C)C(=O)N1CC2(CCN(C3CCN(c4ncccn4)CC3)CC2)c2cc(F)ccc21 [compound 1032] | – | – | – | – | – | – | – | – | Emax (M1 muscarinic receptor; [10]): 25 to 100%; EC50 (M1 muscarinic receptor; [11]): 2000 to 10000 nM; Emax (M4 muscarinic receptor; [10]): 25 to 100%; EC50 (M4 muscarinic receptor; [12]): < 2000 nM |
| O=C1CCCN1[C@H]1CCC2(CCN(C[C@@H]3C[C@H]4C=CC3C4)CC2)c2ccccc21 [compound 856] | 25 to 100 | – | 25 to 100 | – | – | – | – | – | M1 Activity (M1 muscarinic receptor; [8]): xxx (activity was measured to be less than 2.0 μM); M4 Activity (M4 muscarinic receptor; [9]): xxx (activity was measured to be less than 2.0 μM) |
| CC(=O)N1CC2(CCN(C3CCN(C(=O)O[C@H]4CCOC4)CC3)CC2)c2cc(F)ccc21 [compound 418] | – | – | – | – | – | – | – | – | EC50 (M1 muscarinic receptor; [13]): > 1000 nM; Emax (M1 muscarinic receptor; [14]): < 65%; EC50 (M4 muscarinic receptor; [15]): > 1000 nM; Emax (M4 muscarinic receptor; [16]): < 65% |
| CN(C)C(=O)N1CC2(CCN(C3CCN(c4cccc(F)c4)CC3)CC2)c2cc(F)ccc21 [compound 866] | 25 to 100 | – | 25 to 100 | – | – | – | – | – | M1 Activity (M1 muscarinic receptor; [8]): xx (activity was measured to be between 2.0 μM and 5.0 μM); M4 Activity (M4 muscarinic receptor; [9]): xxx (activity was measured to be less than 2.0 μM) |
| CN(C)C(=O)N1CC2(CCN(C3CCN(c4cccnc4)CC3)CC2)c2cc(F)ccc21 [compound 1040] | – | – | – | – | – | – | – | – | Emax (M1 muscarinic receptor; [10]): 25 to 100%; EC50 (M1 muscarinic receptor; [11]): < 2000 nM; Emax (M4 muscarinic receptor; [10]): 25 to 100%; EC50 (M4 muscarinic receptor; [12]): < 2000 nM |
| CN(C)C(=O)N1C2CCC1CC(N1CCC3(CC1)COc1ccc(F)cc13)C2 (centres unmarked) [compound 203] | – | – | – | – | xxx (activity was measured to be less than 0.1 μM) | 65 to 85 | xx (activity was measured to be between 0.1 μM and 1.0 μM) | < 65 | – |
| CCOC(=O)N1C2CCC1CC(N1CCC3(CC1)CN(S(C)(=O)=O)c1ccc(F)cc13)C2 (centres unmarked) [compound 103] | – | – | – | – | xxx (activity was measured to be less than 0.1 μM) | 65 to 85 | xx (activity was measured to be between 0.1 μM and 1.0 μM) | < 65 | – |
| CCOC(=O)N1CCC(N2CCC3(CC2)CN(c2nc(C)ns2)c2ccccc23)CC1 [compound 700] | > 100 | xxx (activity was measured to be less than 2.0 μM) | > 100 | xxx (activity was measured to be less than 2.0 μM) | – | – | – | – | – |
| CCC#CCOC(=O)N1CCC(N2CCC3(CC2)CN(C(C)=O)c2cccc(C)c23)CC1 [compound 825] | 25 to 100 | – | < 25 | – | – | – | – | – | M1 Activity (M1 muscarinic receptor; [8]): xxx (activity was measured to be less than 2.0 μM); M4 Activity (M4 muscarinic receptor; [9]): x (activity was measured to be greater than 5.0 μM) |
| CC(=O)N1CC2(CCN(CC3=CCCCC3)CC2)c2cc(F)ccc21 [compound 163] | – | – | – | – | xxx (activity was measured to be less than 0.1 μM) | 65 to 85 | xx (activity was measured to be between 0.1 μM and 1.0 μM) | > 85 | – |
| CC(=O)N[C@H]1CC2(CCN(CC(=O)N3CCCC3)CC2)c2ccccc21 [compound 671] | < 25 | x (activity was measured to be greater than 5.0 μM) | < 25 | x (activity was measured to be greater than 5.0 μM) | – | – | – | – | – |
| CS(=O)(=O)N1CC2(CCN(C3CC4CCC(C3)N4C(=O)OC3CCC3)CC2)c2cc(F)ccc21 (centres unmarked) [compound 122] | – | – | – | – | xxx (activity was measured to be less than 0.1 μM) | 65 to 85 | xx (activity was measured to be between 0.1 μM and 1.0 μM) | < 65 | – |
| CCOC(=O)N1C2CCC1CC(N1CCC3(CC1)CN(C(C)=O)c1c(C(F)(F)F)cccc13)C2 (centres unmarked) [compound 686] | < 25 | x (activity was measured to be greater than 5.0 μM) | < 25 | x (activity was measured to be greater than 5.0 μM) | – | – | – | – | – |
| CC(C)COC(=O)N1C2CCC1CC(N1CCC3(CC1)COc1ccc(F)cc13)C2 (centres unmarked) [compound 160] | – | – | – | – | xxx (activity was measured to be less than 0.1 μM) | > 85 | xx (activity was measured to be between 0.1 μM and 1.0 μM) | > 85 | – |
| Cc1ccc2c(c1)C1(CCN(C3CC4CCC3C4)CC1)CN2 (centres unmarked) [compound 350] | – | – | – | – | xxx (activity was measured to be less than 0.1 μM) | > 85 | xxx (activity was measured to be less than 0.1 μM) | > 85 | – |
| COCCOC(=O)N1CC[C@H](CN2CCC3(CC2)CN(C(C)=O)c2ccccc23)C1 [compound 681] | 25 to 100 | x (activity was measured to be greater than 5.0 μM) | < 25 | x (activity was measured to be greater than 5.0 μM) | – | – | – | – | – |
| O=C(O)C1CC2(CCN(C3CCCC3)CC2)c2ccccc21 (centres unmarked) [compound 542] | < 25 | x (activity was measured to be greater than 5.0 μM) | < 25 | x (activity was measured to be greater than 5.0 μM) | – | – | – | – | – |
| CCOC(=O)N1CCC(N2CCC3(CC2)CN(C(C)=O)c2ccc(-c4ccc(C(N)=O)cc4)cc23)CC1 [compound 406] | – | – | – | – | – | – | – | – | EC50 (M1 muscarinic receptor; [13]): 100 to 1000 nM; Emax (M1 muscarinic receptor; [14]): < 65%; EC50 (M4 muscarinic receptor; [15]): > 1000 nM; Emax (M4 muscarinic receptor; [16]): < 65% |
| CCOC(=O)N1CCC(N2CCC3(CC2)CN(C(C)=O)c2ccc(Cl)cc23)CC1 [compound 141] | – | – | – | – | xxx (activity was measured to be less than 0.1 μM) | > 85 | xx (activity was measured to be between 0.1 μM and 1.0 μM) | > 85 | – |
| CC(=O)N1CC2(CCN(C3CCN(C(=O)OCC(C)(C)C)CC3)CC2)c2ccccc21 [compound 496] | < 25 | x (activity was measured to be greater than 5.0 μM) | < 25 | x (activity was measured to be greater than 5.0 μM) | – | – | – | – | – |
| CCOC(=O)N1C2CCC1CC(N1CCC3(CC[C@H](NC(C)=O)c4ccccc43)CC1)C2 (some centres unmarked) [compound 810] | 25 to 100 | – | 25 to 100 | – | – | – | – | – | M1 Activity (M1 muscarinic receptor; [8]): xxx (activity was measured to be less than 2.0 μM); M4 Activity (M4 muscarinic receptor; [9]): xxx (activity was measured to be less than 2.0 μM) |
